Test results as given in US20220202905A1, “COMPOSITION FOR PREVENTING OR TREATING NEUROTROPHIC KERATITIS WHICH CONTAINS PACAP PEPTIDE OR STABILIZED PACAP PEPTIDE” (SENJU PHARMACEUTICAL CO., LTD., priority 2019, published 2022).
Square brackets hold non-standard residues; d marks the D form. Peptide text beside a SMILES is read from it. Ala(1H-tetrazol-5-yl) = N[C@@H](Cc1nnn[nH]1)C(=O)O

How the values were obtained:
[1] = system: neurotrophic keratitis rat model; assay: Superficial punctate keratitis (SPK) score in neurotrophic keratitis rat model; assay type: in vivo; details: 0.1% eye drops 3 times daily, evaluated 2 weeks after start of eye dropping; FIG. 4
Procedure: (§1) A rat model was prepared, by subcutaneous administration of capsaicin in the dorsal region of rats, which elicited corneal nerve injury and attenuated corneal sensation while also leading to decreased lacrimal fluid volume and superficial punctate keratitis (SPK) (NPL 3: Investigative Ophthalmology & Visual Science (2012), vol. 53, No. 13, p. 8280-8287). The rats were given PACAP27 and its stabilized peptide eye drops, and the inhibiting effect on corneal damage was examined. The specific experiment method was as follows.
Capsaicin (product of Sigma) was dissolved in PBS containing 10% EtOH and 10% Tween80, and subcutaneously administered to the dorsal region of 4-day-old male Wistar/ST rats at a dose of 50 mg/kg·b·w. […]
SPK was evaluated 2 weeks after the start of eye dropping. […] The eye surface was then observed with a slit lamp microscope, and the degree of corneal damage was evaluated by the method of Murakami et al., Atarashii Ganka 21 (1):87-90 (2004). Specifically, the cornea was divided into 3 regions, the top, center and bottom, and a score was assigned to each region on the following scale, with the value of the total of the scores of the 3 regions being recorded as the SPK score. <Scale> 0: No punctate stains, 1: Sparse (separated punctate fluorescein stains), 2: Intermediate (between 1 and 3), 3: Dense (almost all punctate fluorescein stains adjacent).

[2] = system: rat trigeminal nerve cells; assay: Axon elongation effect on cultured rat trigeminal nerve cells; assay type: cell-based; details: 1 μM peptide, 24 hours; N=8; Dunnett's test vs control P<0.001; FIG. 5
Procedure: Rats (Sic: Sprague-Dawley, 17-day-old, including female and male) purchased from Japan SLC, Inc. were euthanized by carbon dioxide gas inhalation and the trigeminal ganglion was harvested. The harvested trigeminal ganglion was washed with Hanks' balanced salt solution (HBSS) and then treated with collagenase A (Roche) for 30 minutes at 37° C. A neuron dispersion (Wako) was then used according to protocol for dispersion of the cells. Debris removal solution (Miltenyi biotec) and Myelin removal beads II (Miltenyi biotec) were used according to protocol to remove the debris and myelin. After suspending the isolated trigeminal nerve cells in culture solution, they were seeded onto a polylysine/laminin-coated 8-well chamber slide (Corning) at 2.5×10^3 cells/well. The culture solution used was Neurobasal-A containing B27 supplement (final concentration: 2%) and GlutaMAX (final concentration: 2 mM) and penicillin/streptomycin (final concentration: 1%). The culturing conditions were a carbon dioxide concentration of 5%, an air concentration of 95%, a humidity of 100% and a temperature of 37° C. […] The control was replaced with peptide-free culture solution. Culture medium replacement was followed by further culturing for 24 hours.
The culture medium was replaced with peptide-containing culture solution, and the rat trigeminal nerve cells cultured for 24 hours were immersed in a 2% paraformaldehyde solution at room temperature for 20 minutes for fixing. The cells were washed with PBS, and then 2% bovine serum albumin containing 0.1% TritonX-100 was added and reaction was conducted for 30 minutes. After washing with PBS, it was reacted with phospho-neurofilament H antibody (Merck, MAB1592-C) specifically recognizing neurofilaments forming the neuron bodies and neurites, for 1 hour at room temperature. After reaction for 1 hour, a fluorescent-labeled secondary antibody (Invitrogen Corp., #A-11031) was reacted at room temperature for 1 hour for fluorescent staining of the sample, and the stained cells were observed under a fluorescent microscope. The stained cell image was captured as an image from the fluorescent microscope and loaded into a computer.
In order to evaluate the extent of neurite formation by the rat trigeminal nerve cells, cells with neurites having lengths of at least twice the cell body diameter in the stained cell image in the computer were counted as neurite-forming cells, and the percentage (%) of this number of cells over the total cell count was calculated (Otori Y. Wei J Y, Barnstable C J. Invest. Ophthalmol Vis Sci (1998) 39, 972-981). The significant difference with respect to the control was determined by Dunnett's test (P<0.001).

[3] = system: neurotrophic keratitis rat model; assay: Corneal sensation (Cochet-Bonnet) in neurotrophic keratitis rat model; assay type: in vivo; details: 0.1% eye drops, capsaicin-treated rats; method and result in present tense
Procedure: as §1
(§2) Capsaicin (product of Sigma) was dissolved in PBS containing 10% EtOH and 10% Tween80, and subcutaneously administered to the dorsal region of 4-day-old male Wistar/ST rats at a dose of 50 mg/kg·b·w.
The base was prepared by dissolving 0.3 g of trishydroxymethylaminomethane (Nacalai Tesque, Inc.) and 4.4 g of D(−)-mannitol (Nacalai Tesque, Inc.) in 100 mL of sterilized water, adding 1 N·HCl and adjusting the pH to 7. […] Each eye drops was stored at room temperature. Each eye drop was initially administered 3 weeks after administration of capsaicin, 3 times every day, in an amount of 10 μL for each eye.
Corneal sensation is measured using a Cochet-Bonnet corneal sensory meter (Handaya Shoten). […] This procedure is repeated 3 times, and the average value for the obtained filament lengths is recorded as the corneal sensation threshold (CST) for that individual.

[4] = system: neurotrophic keratitis rat model; assay: Corneal nerve staining, nerve density in neurotrophic keratitis rat model; assay type: in vivo; details: 0.1% eye drops, capsaicin-treated rats; method and result in present tense
Procedure: as §1, §2
The base was prepared by dissolving 0.3 g of trishydroxymethylaminomethane (Nacalai Tesque, Inc.) and 4.4 g of D(−)-mannitol (Nacalai Tesque, Inc.) in 100 mL of sterilized water, adding 1 N·HCl and adjusting the pH to 7. […] Each eye drops was stored at room temperature. […]
After euthanizing rats, the eye bulbs are extracted and immersed in Zamboni solution (product of Wako Pure Chemical Industries, Ltd.), and allowed to stand for 15 minutes at room temperature. […] The nerve density of the swirl structure in the nerve layer is quantified by conducting Sholl analysis using image analysis software (Image J).

SMILES	SPK score [1]	axon elongation (percentage of neurite-forming cells) [2]	corneal sensation threshold (CST) [3]	corneal nerve density (Sholl analysis) [4]
CC[C@H](C)[C@H](NC(=O)CNC(=O)[C@H](CC(=O)O)NC(=O)[C@H](CO)NC(=O)[C@@H](N)Cc1cnc[nH]1)C(=O)N[C@@H](Cc1ccccc1)C(=O)N[C@H](C(=O)N[C@@H](CC(=O)O)C(=O)N[C@@H](CO)C(=O)N[C@@H](Cc1ccc(O)cc1)C(=O)N[C@@H](CO)C(=O)N[C@@H](CCCNC(=N)N)C(=O)N[C@@H](Cc1ccc(O)cc1)C(=O)N[C@@H](CCCNC(=N)N)C(=O)N[C@@H](CCCCN)C(=O)N[C@@H](CCC(N)=O)C(=O)N[C@@H](CCSC)C(=O)N[C@@H](C)C(=O)N[C@H](C(=O)N[C@@H](CCCCN)C(=O)N[C@@H](CCCCN)C(=O)N[C@@H](Cc1ccc(O)cc1)C(=O)N[C@@H](CC(C)C)C(=O)N[C@@H](C)C(=O)N[C@@H](C)C(=O)N[C@H](C(=O)N[C@@H](CC(C)C)C(N)=O)C(C)C)C(C)C)[C@@H](C)O [Peptide 1, reference compound]	improved the increased SPK score	exhibited axon elongation-promoting effects	improves reduction in corneal sensation	improves reduction in nerve density
CC[C@H](C)[C@H](NC(=O)CNC(=O)[C@H](Cc1nnn[nH]1)NC(=O)[C@H](CO)NC(=O)[C@H](Cc1c[nH]cn1)NC(C)=O)C(=O)N[C@@H](Cc1ccccc1)C(=O)N[C@H](C(=O)N[C@@H](Cc1nnn[nH]1)C(=O)N[C@@H](CO)C(=O)N[C@@H](Cc1ccc(O)cc1)C(=O)N[C@@H](CO)C(=O)N[C@@H](CCCNC(=N)N)C(=O)N[C@@H](Cc1ccc(O)cc1)C(=O)N[C@@H](CCCNC(=N)N)C(=O)N[C@@H](CCCCN)C(=O)N[C@@H](CCC(N)=O)C(=O)N[C@@H](CC(C)C)C(=O)N[C@@H](C)C(=O)N[C@H](C(=O)N[C@@H](CCCCN)C(=O)N[C@@H](CCCCN)C(=O)N[C@@H](Cc1ccc(O)cc1)C(=O)N[C@@H](CC(C)C)C(=O)N[C@@H](C)C(=O)N[C@@H](C)C(=O)N[C@H](C(=O)N[C@@H](CC(C)C)C(N)=O)C(C)C)C(C)C)[C@@H](C)O [Peptide 9] (Ac-HS[Ala(1H-tetrazol-5-yl)]GIFT[Ala(1H-tetrazol-5-yl)]SYSRYRKQLAVKKYLAAVL-NH2)	improved the increased SPK score	exhibited axon elongation-promoting effects	improves reduction in corneal sensation	improves reduction in nerve density
